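How tested: cells in 96-well plates exposed to compound for 48 hours at five concentrations. TGI denotes the concentration required for complete inhibition of growth.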
Key:
Experiment in all cases: inhibition of tumour cell growth, NCI panel, 48 h
[1] = system: COLO 205 colon
[2] = system: HCT-15 colon
[3] = system: MCF7 breast
[4] = system: NCI-H522 lung
[5] = system: OVCAR-4 ovarian
[6] = system: RPMI-8226 leukemia
[7] = system: SK-OV-3 ovarian
[8] = system: SNB-75 CNS
[9] = system: T-47D breast
[10] = system: U251 CNS

SMILES | TGI [1] | TGI [2] | TGI [3] | TGI [4] | TGI [5] | TGI [6] | TGI [7] | TGI [8] | TGI [9] | TGI [10]
Clc1ccc(/C=C/c2nc3ccccc3s2)cc1Cl | > 100 µM | > 100 µM | > 100 µM | > 100 µM | 37.3 µM | > 100 µM | > 100 µM | 40.9 µM | 9.77 µM | > 100 µM
CC(C)c1ccc(/C=C2/C=C(c3ccc4ccccc4c3)OC2=O)cc1 | 76.1 µM | > 100 µM | > 100 µM | 23.5 µM | > 100 µM | 93.7 µM | > 100 µM | > 100 µM | > 100 µM | > 100 µM
COC(=O)c1cc2c(n1S(=O)(=O)c1ccc(C)cc1)C(=O)C(=O)c1[nH]cc(C(=O)OCc3ccccc3)c1-2 | 0.433 µM | 0.256 µM | 0.174 µM | 0.48 µM | 0.987 µM | 0.515 µM | 2.13 µM | 0.3 µM | 0.975 µM | 0.809 µM
N#CC1=C(N)N(c2ccccc2)C(c2ccco2)C1(C#N)C#N (stereo not given) | 39.2 µM | 43.2 µM | 43.9 µM | 35.2 µM | 49 µM | 45.5 µM | > 100 µM | 66.8 µM | 81 µM | 43 µM
Cc1cc(N(CCC#N)CCC#N)ccc1/C(N=Nc1ccc(Cl)cc1)=N\NC(=O)c1ccccc1 | 94.1 µM | > 100 µM | > 100 µM | 48.1 µM | > 100 µM | > 100 µM | > 100 µM | > 100 µM | 88.3 µM | > 100 µM
CCOC(=O)c1c2ccccc2n2c(N)c(C(N)=O)nnc12 | > 100 µM | > 100 µM | > 100 µM | > 100 µM | > 100 µM | > 100 µM | 37.6 µM | 30.8 µM | > 100 µM | 55.2 µM
COc1ccc(N2C(=O)C3c4[nH]c5ccccc5c4C4CCC(C(C)(C)C)CC4C3C2=O)c(C)c1 (stereo not given) | > 100 µM | > 100 µM | > 100 µM | > 100 µM | > 100 µM | > 100 µM | > 100 µM | > 100 µM | > 100 µM | > 100 µM
C=C1c2nc3ccccc3n2C=C(c2ccccc2)N1c1ccc([N+](=O)[O-])cc1 | 48.4 µM | 32.1 µM | > 37.9 µM | 24.4 µM | 2.29 µM | > 55.7 µM | 15.3 µM | 16.4 µM | > 53.5 µM | 22.6 µM
COc1ccc(/C=C2\CCC(C)C3=C2NC(=S)NC3c2ccc(OC)c(OC)c2)cc1OC (stereo not given) | 24.7 µM | > 31.6 µM | > 31.6 µM | > 100 µM | > 100 µM | > 31.6 µM | > 31.6 µM | > 100 µM | > 27.4 µM | > 31.6 µM
NC(=O)C(c1ccccc1)N1OC2C(=O)N(c3ccccc3)C(=O)C2C1c1c2ccccc2c(Cl)c2ccccc12 (stereo not given) | > 100 µM | > 100 µM | > 100 µM | > 100 µM | > 100 µM | > 100 µM | > 100 µM | > 100 µM | > 100 µM | > 100 µM
CN1CCN([C@H]2C[C@H]3[C@@H]4CC=C5C[C@@H](O)CC[C@]5(C)[C@H]4CC[C@]3(C)C2=O)CC1 | > 100 µM | > 100 µM | > 100 µM | > 100 µM | > 100 µM | > 100 µM | > 100 µM | > 100 µM | > 100 µM | > 100 µM
CC(C)C1/C(=N/O)CC(c2ccccc2)N(N=O)C1c1ccccc1 (stereo not given) | 31 µM | > 100 µM | > 100 µM | > 100 µM | > 100 µM | > 100 µM | > 100 µM | > 100 µM | 96.2 µM | > 100 µM
O=C1CCC(=O)N1n1c(Cc2ccccc2)n[nH]c1=O | > 100 µM | > 100 µM | > 100 µM | > 100 µM | > 100 µM | > 100 µM | > 100 µM | > 100 µM | > 100 µM | > 100 µM
Clc1cc(OC2C3CC4CC(C3)CC2C4)nc(Cl)n1 (stereo not given) | 34.2 µM | 33.3 µM | 35.2 µM | 27.1 µM | 34.3 µM | 43 µM | > 100 µM | 86.7 µM | 53.4 µM | 31.9 µM
